Consider 10 molecules from ChEMBL document CHEMBL1135650, “Synthesis of classical and nonclassical, partially restricted, linear, tricyclic 5-deaza antifolates” (J Med Chem, 2002).

Series [1] is described as follows: Selectivity ratio as the ratio of IC50 value against recombinant human (rh) DHFR to that of Escherichia coli (ec) DHFR. The series is classed as functional.
A short description of series [2]: Selectivity ratio as the ratio of IC50 value against recombinant human (rh) DHFR to that of pneumocystis carinii (pc ) DHFR. The series is classed as functional.
Series [3] is described as follows: Selectivity ratio as the ratio of IC50 value against recombinant human (rh) DHFR to that of Toxoplasma gondii (tg) DHFR. Type of series: functional.
Series [4] has as its target T1, Dihydrofolate reductase (Pneumocystis carinii, UniProt P16184).
T1 sequence (P16184 whole entry): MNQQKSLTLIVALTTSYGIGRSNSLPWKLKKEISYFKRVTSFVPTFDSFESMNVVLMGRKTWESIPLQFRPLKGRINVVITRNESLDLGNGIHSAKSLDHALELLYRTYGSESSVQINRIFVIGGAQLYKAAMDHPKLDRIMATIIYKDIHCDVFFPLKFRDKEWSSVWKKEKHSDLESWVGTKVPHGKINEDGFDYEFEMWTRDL

In series [5] the target is T2, Bifunctional dihydrofolate reductase-thymidylate synthase (Toxoplasma gondii, UniProt Q07422).
T2 sequence (Q07422 whole entry): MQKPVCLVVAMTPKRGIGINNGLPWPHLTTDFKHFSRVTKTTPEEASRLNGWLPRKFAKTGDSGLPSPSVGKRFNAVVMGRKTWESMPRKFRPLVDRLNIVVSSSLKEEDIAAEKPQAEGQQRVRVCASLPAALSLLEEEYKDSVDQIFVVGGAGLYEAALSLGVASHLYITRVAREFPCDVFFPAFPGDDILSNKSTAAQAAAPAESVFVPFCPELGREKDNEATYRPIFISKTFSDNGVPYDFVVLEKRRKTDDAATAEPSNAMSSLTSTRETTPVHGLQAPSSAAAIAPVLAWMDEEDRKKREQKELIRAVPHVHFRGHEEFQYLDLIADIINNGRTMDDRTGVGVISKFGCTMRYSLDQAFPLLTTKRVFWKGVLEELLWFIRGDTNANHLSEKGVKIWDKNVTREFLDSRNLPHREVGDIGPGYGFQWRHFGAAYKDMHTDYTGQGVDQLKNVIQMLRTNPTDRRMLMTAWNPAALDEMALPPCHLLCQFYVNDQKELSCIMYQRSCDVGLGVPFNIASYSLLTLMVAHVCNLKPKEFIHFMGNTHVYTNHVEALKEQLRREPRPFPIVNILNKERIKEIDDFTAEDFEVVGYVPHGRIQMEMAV

Series [6] has as its target T3, Dihydrofolate reductase (Homo sapiens, UniProt P00374).
T3 sequence (P00374 whole entry): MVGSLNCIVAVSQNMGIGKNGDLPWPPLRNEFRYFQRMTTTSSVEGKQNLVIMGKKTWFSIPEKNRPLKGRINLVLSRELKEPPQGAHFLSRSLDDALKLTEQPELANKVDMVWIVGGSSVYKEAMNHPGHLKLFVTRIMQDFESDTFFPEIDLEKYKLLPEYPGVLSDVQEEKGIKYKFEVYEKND

Series [7] can be described thus: Kinetic parameter Vmax of the compound. The series is classed as ADME.
Series [8] deals with Panel leukemia (Carcinoma cell lines). Put plainly: In vitro inhibitory activity against the growth of tumor cells in leukemia cells;Value ranges from (10e-6 to 10e-7). Type of series: functional. The settings on record: Homo sapiens.
Series [9] addresses T4, Dihydrofolate reductase (Pneumocystis carinii) (UniProt P16184).
T4 sequence (whole entry): T1 sequence (P16184 whole entry)
Nature of the series: Percent Inhibition activity against pneumocystis carinii Dihydrofolate reductase. The settings on record: concentration not given here.

Series [10] in a line: Kinetic constant Vmax relative to aminopterin. Type of series: ADME.
The nature of series [11]: Concentration required to decrease cell growth by 50% in methotrexate-resistant CCRF-CEM human leukemia subline (R2). Type of series: functional, cell-based.
Series [12] can be described thus: Concentration required to decrease cell growth by 50% in methotrexate-resistant CCRF-CEM human leukemia subline (R30dm). The series is classed as functional, cell-based.
A further series concerns CCRF-CEM. Put plainly: Concentration required to decrease cell growth by 50% in CCRF-CEM human leukemia cell line. Type of series: functional, cell-based.
Series [13] in a line: Concentration required to decrease cell growth by 50% in methotrexate-resistant CCRF-CEM human leukemia subline (R1). The series is classed as functional, cell-based.
Substrate in series [14]: Nc1nc(N)c2cc3c(nc2n1)CCN(Cc1ccc(C(=O)N[C@@H](CCC(=O)O)C(=O)O)cc1)C3
Nature of the series: (§1) Ability to act as a substrate for human folyglutamate synthetase (FPGS).

Substrate in series [15]: Nc1nc(N)c2nc(CNc3ccc(C(=O)N[C@@H](CCC(=O)O)C(=O)O)cc3)cnc2n1
Described as §1.

For `Nc1nc(N)c2cc3c(nc2n1)CCN(Cc1ccc(Cl)c(Cl)c1)C3`, the Ratio in series [1] was above 8.6; in [2], above 5.2; in [3], above 5. In addition, the IC50 (in general, the concentration that gives 50% inhibition) is 5000 nM against Dihydrofolate reductase [4], 5100 nM in series [5] and above 26000 nM on Dihydrofolate reductase [6].
On to `Nc1nc(N)c2nc(CNc3ccc(C(=O)N[C@@H](CCC(=O)O)C(=O)O)cc3)cnc2n1` [AMINOPTERIN], for which the Vmax in series [7] was determined as 1.
In the case of `Nc1nc(N)c2cc3c(nc2n1)CCN(Cc1ccc(Cl)cc1Cl)C3`, the IC50 was found to be 4000 nM on Dihydrofolate reductase [4], 2100 nM in [5] and 1300 nM against Dihydrofolate reductase [6].
`Nc1nc(N)c2cc3c(nc2n1)CCN(Cc1ccccc1)C3`: the GI50 (usually the concentration that inhibits growth by half) in series [8] came out at 1000 nM. The IC50 against Dihydrofolate reductase [4] came out at 16000 nM; in [5], 1400 nM; against Dihydrofolate reductase [6], 32000 nM.
`Nc1nc(N)c2cc3c(nc2n1)CCN(C(=O)OCc1ccccc1)C3`: in series [9], the inhibition (as a rule, the drop in the measured response relative to a control, in per cent) is 35%. This molecule also had a GI50 in series [8] of 1000 nM. The Ratio in [1] was determined as 10; in series [3], 1.3. In addition, the IC50 was above 15000 nM at Dihydrofolate reductase [4], 22000 nM in [5] and 30000 nM against Dihydrofolate reductase [6].
`COc1ccc(CN2CCc3nc4nc(N)nc(N)c4cc3C2)cc1` registered an inhibition in series [9] of 35%. The IC50 at Dihydrofolate reductase [4] is above 15000 nM; in [5], 2900 nM; at Dihydrofolate reductase [6] it was 27000 nM.
Turning to `COc1cc(CN2CCc3nc4nc(N)nc(N)c4cc3C2)cc(OC)c1`, the IC50 against Dihydrofolate reductase [4] is 14000 nM; in series [5], 2700 nM; on Dihydrofolate reductase [6] it was 22000 nM.
Take `CN(Cc1cnc2nc(N)nc(N)c2n1)c1ccc(C(=O)N[C@@H](CCC(=O)O)C(=O)O)cc1` [METHOTREXATE]: the Vmax in series [10] was 0.82. Moreover, the EC50 – broadly, the concentration at which the effect is half-maximal – came to 1700 nM in series [11], 16 nM in series [12] and 12 nM in the series on CCRF-CEM.
As for `Nc1nc(N)c2cc3c(nc2n1)CCN(Cc1ccc(C(=O)N[C@@H](CCC(=O)O)C(=O)O)cc1)C3`, the Vmax rel in series [10] was 1.07. The GI50 in series [8] was 1000 nM. Also, the EC50 in series [13] was above 10000 nM; in series [11] it was above 10000 nM; in [12], 1900 nM; in the series with CCRF-CEM, 771 nM. The IC50 is 1800 nM on Dihydrofolate reductase [4] and 5400 nM against Dihydrofolate reductase [6].

B1: Folylpolyglutamate synthase, mitochondrial (Homo sapiens), Q05932 (protein)
chain: MSRARSHLRAALFLAAASARGITTQVAARRGLSAWPVPQEPSMEYQDAVRMLNTLQTNAGYLEQVKRQRGDPQTQLEAMELYLARSGLQVEDLDRLNIIHVTGTKGKGSTCAFTECILRSYGLKTGFFSSPHLVQVRERIRINGQPISPELFTKYFWRLYHRLEETKDGSCVSMPPYFRFLTLMAFHVFLQEKVDLAVVEVGIGGAYDCTNIIRKPVVCGVSSLGIDHTSLLGDTVEKIAWQKGGIFKQGVPAFTVLQPEGPLAVLRDRAQQISCPLYLCPMLEALEEGGPPLTLGLEGEHQRSNAALALQLAHCWLQRQDRHGAGEPKASRPGLLWQLPLAPVFQPTSHMRLGLRNTEWPGRTQVLRRGPLTWYLDGAHTASSAQACVRWFRQALQGRERPSGGPEVRVLLFNATGDRDPAALLKLLQPCQFDYAVFCPNLTEVSSTGNADQQNFTVTLDQVLLRCLEHQQHWNHLDEEQASPDLWSAPSPEPGGSASLLLAPHPPHTCSASSLVFSCISHALQWISQGRDPIFQPPSPPKGLLTHPVAHSGASILREAAAIHVLVTGSLHLVGGVLKLLEPALSQ
On to B1, for which the Km (commonly the concentration of substrate that gives half-maximal velocity) in series [14] was 27.3 µM; in series [15] it was 2.15 µM.
